Results published in article PMC11275179, “Superior Anticancer and Antifungal Activities of New Sulfanyl-Substituted Niclosamide Derivatives” (Biomedicines, 2024).
Values after ≈ are worked out from the molar mass of the structure shown. Values joined by “and” are separate entries in the source; they are usually repeats but may differ in a detail not shown here. Identical values can stand only once. Like-named read-outs stand apart in the source and are kept apart here.

How the values were obtained:
FLO-1 EAC cells = assay: MTT proliferation assay, FLO-1 cells; format: cell-based; details: read-out: Antiproliferative activity IC50, FLO-1
Experimental: (§1) The FLO-1, SK-GT-4, and THP-1 cell lines were a gift from Dr. Shrikant Anant’s laboratory. Cells were grown in 10% fetal bovine serum (Fisher Scientific#FB12999102, Pittsburgh, PA, USA) and 1% antibiotic/antimycotic agent (Corning, Tewksbury, MA, USA) in RPMI 1640 media mixed with […] HEPES, L-glutamine (Corning, MA, USA). The cell lines were grown in a 5% CO2 incubator at 37 °C and used below 15 passages for the experiments.
(§2) The proliferation assay used a 3-(4,5-dimethylthiazol-2-yl)-2,5-diphenyltetrazolium bromide (MTT) assay. Briefly, 5000 FLO-1 and SK-GT-4 cells were counted and seeded in each well in 96-well plates. Post 24 h of incubation, EAC cells were treated with multiple concentrations (0–10 μM) of niclosamide (Cayman chemical#10649, Ann Arbor, MI, USA) and its analogs. At respective time points, 10 μL of stock MTT reagent (Millipore Sigma, Bedford, MA, USA) (3 mg/mL) was added to each well and incubated for 1–2 h under the dark at 37 °C. After incubation, the purple formazan crystals were dissolved in equal volumes of DMSO, and the absorbance of the resulting clear solutions was recorded at 570 nm using a microplate reader. A CCK-8 (Abcam, Cat no. ab228554, Burlingame, CA, USA) assay was used for the THP-1 cells. Briefly, 5000 cells were plated in every well of a 96-well plate. After 24 h of plating, THP-1 cells were treated with niclosamide and compound 3a. After the respective time point, an equal amount of CCK-8 reagent was pipetted to the wells and incubated for one hour in an incubator, and finally, the absorbance was recorded at 450 nm. The percent change in the proliferation was calculated by comparing the cell viability of the treated groups to the untreated control cells.

SK-GT-4 EAC cells = assay: MTT proliferation assay, SK-GT-4 cells; format: cell-based; details: read-out: Antiproliferative activity IC50, SK-GT-4
Experimental: as §1, §2

[1] = system: M. mycetomatis MM55 strain; assay: In vitro susceptibility testing (MTS), MM55 strain; format: cell-based, Madurella mycetomatis; details: for IC90: read-out: Antifungal activity IC90; for IC50: read-out: Antifungal activity IC50
Experimental: (§3) The antifungal activity of the compounds was tested against a geographically and genetically diverse set of M. mycetomatis isolates. These included the MM55 strain from Sudan, strains I1, I3, and […] from India, strain P1 from Mali, strain SO1 from Somalia, strain Peru72012 from Peru, and strain CBS247.48 whose country of origin was unknown. All isolates were originally obtained from patients and identified and maintained in the Erasmus Medical Centre, Rotterdam, The Netherlands. In vitro susceptibility testing was performed as reported previously. The only difference was that tetrazolium compound 3-(4,5-dimethylthiazol-2-yl)-5-(3-carboxymethoxyphenyl)-2-(4-sulfophenyl)-2H-tetrazolium salt (MTS) was used as a viability dye in endpoint reading instead of 2,3-bis-(2-methoxy-4-nitro-5-sulfophenyl)-2H-tetrazolium-5-carboxanilide salt (XTT).

Microsomal clearance = format: in vitro ADME; details: for half-life at 0.5 µM: female, CD1, pH 7.4, mouse liver microsomes, read-out: Microsomal T ½; for Microsomal Clearance: mouse liver microsomes, 0.5 µM
Experimental: Liver microsomes were applied to study the microsomal clearance of test compounds. The test compound (0.5 µM) was incubated with female CD1 mouse liver microsomes (0.5 mg/mL, 50 mM potassium phosphate buffer, pH 7.4), and the reaction started with the addition of excess NADPH (8 mg/mL, 50 mM potassium phosphate buffer, and pH 7.4). Immediately, at time 0, then at 3, 6, 9, 15, and 30 min, an aliquot of the incubation mixture was removed and mixed with acetonitrile to stop the reaction. An internal standard (IS) was added to all samples, the samples were centrifuged to sediment precipitated protein, and the plates were then sealed prior to UPLC-MSMS analysis (Xevo TQ-S Micro, Waters^TM, Milford, MA, USA). An exponential decay fit was created from the response ratio (compound peak area/IS peak area) and incubation time, and subsequently, Clint (mL/min/mg protein) was calculated by multiplying the rate constant (k) of the exponential decay curve and incubation conditions (incubation volume/mg protein added).

[2] = HepG2 hepatotoxicity, resazurin assay; format: cell-based; details: human, HepG2 hepatoma cells, two independent experiments
Experimental: (§4) HepG2 hepatoma cells were used for hepatotoxicity studies. Cells were provided by ECACC with a certificate of analysis confirming STR profiling and were mycoplasma tested every time new stabilates were made. Cells were screened utilizing a resazurin-based fluorescence assay (λex = 540 nm, λem = 590 nm) in a 384-well plate format. HepG2 cells (1 × 10^5 cells/mL) were incubated with the compound in a 10-point, 1 in 3 dilution series from a top concentration of 100 µM, for 72 h. After the 72 h incubation period, resazurin (0.27 mM in a cell culture medium) was added and the plates were incubated for a further 3–4 h before the fluorescent signal was measured using PHERAstar (BMG Labtech, Ortenberg, Germany). IC50 values were calculated from two independent experiments.

HepG2 hepatoma cells = assay: HepG2 hepatotoxicity, resazurin assay; format: cell-based; details: 72 h, two independent experiments
Experimental: as §4

Kinetic solubility = format: physicochemical; details: aqueous buffer
Experimental: Kinetic solubility was tested using 10 mM stock solutions of test compounds in DMSO followed by dilution with an aqueous buffer to a final concentration of 250 µM and vortexed at 900 rpm for 24 h. Then, the samples were filtered and analyzed by UHPLC (Shimadzu Nexera X2, Milton Keynes, UK).

[3] = system: Galleria mellonella larvae; assay: Toxicity in healthy Galleria mellonella larvae; format: in vivo; details: 20 µM, 10 days
Experimental: (§5) In vivo efficacy was determined in larvae of the greater wax moth Galleria mellonella. Since G. mellonella is an invertebrate, it is not subject to directive 2010/63/EU of the European law on animal testing. Larvae were housed in the dark in Petri dishes with Whatman paper. To determine the toxicity in G. mellonella larvae, test compounds were injected on three consecutive days at 24 h intervals in the last pro-leg of healthy larvae followed by monitoring of the survival for ten days. If no significant difference between the control and treated larvae was observed, the compound was considered nontoxic. Larvae were further used in infection studies to determine the in vivo activity of test compounds against M. mycetomatis according to our previously published protocol.

M. mycetomatis strains = assay: In vitro susceptibility testing (MIC), panel of eight strains; format: cell-based, Madurella mycetomatis; details: for MIC50: concentration at which 50% of the eight isolates were completely inhibited
Experimental: as §3

[4] = system: M. mycetomatis MM55 strain; assay: In vivo activity in M. mycetomatis-infected G. mellonella larvae; design: species or system Galleria mellonella; d10 AUC / d10 ΔAUC: unit not given here; details: 20 µM; for d10 AUC: area under the survival curve; for d10 Survival / d10 Survival Corrected with Control: day 10; for d10 ΔAUC: versus control
Experimental: as §5

CHI logD = format: physicochemical; details: reversed-phase UHPLC
Experimental: CHI (chromatographic hydrophobicity index) logD was determined according to previously published methods. Test compounds were prepared as 0.5 mM solutions in 50:50 acetonitrile/water and analyzed by reversed-phase UHPLC (wavelength 254 nm). By plotting the retention time of a set of reference compounds against known CHI values, the CHI value of test compounds was calculated according to their retention time, and this was then further converted to CHI logD.

[5] = system: M. mycetomatis SO1 isolate; design: method as in PMID 34209118; details: read-out: IC50 against the Somalian SO1 isolate; cited from earlier work
[6] = Madurella mycetomatis, MM55STRAIN
[7] = Madurella mycetomatis, CBS247, strain CBS247.48, read-out: MIC, CBS247.48
[8] = Madurella mycetomatis, strain I1, read-out: MIC, I1
[9] = Madurella mycetomatis, strain I3, read-out: MIC, I3
[10] = Madurella mycetomatis, strain I11, read-out: MIC, I11
[11] = Madurella mycetomatis, strain MM55, read-out: MIC, MM55
[12] = Madurella mycetomatis, strain P1, read-out: MIC, P1
[13] = Madurella mycetomatis, strain Peru72012, read-out: MIC, Peru72012
[14] = Madurella mycetomatis, strain SO1, read-out: MIC, SO1

| SMILES | IC90 [1, 6] [µM] | IC50 (FLO-1 EAC cells; FLO-1, 72 h) [µM] | IC50 (SK-GT-4 EAC cells; SKGT4, 72 h) [µM] | MIC (M. mycetomatis strains; [7]) [µM] | MIC (M. mycetomatis strains; [8]) [µM] | MIC (M. mycetomatis strains; [9]) [µM] | MIC (M. mycetomatis strains; [10]) [µM] | MIC (M. mycetomatis strains; [11]) [µM] | MIC (M. mycetomatis strains; [12]) [µM] | MIC (M. mycetomatis strains; [13]) [µM] | MIC (M. mycetomatis strains; [14]) [µM] | MIC50 (M. mycetomatis strains; Madurella mycetomatis) [µM] | d10 AUC [4] | d10 Survival Corrected with Control ([4]; infected larvae) [%] | d10 ΔAUC [4] | IC50 [1, 6] [µM] | other results |
| --- | --- | --- | --- | --- | --- | --- | --- | --- | --- | --- | --- | --- | --- | --- | --- | --- | --- |
| N.N.[Cl][Pt][Cl] [Cisplatin, reference compound] |  |  |  |  |  |  |  |  |  |  |  |  |  |  |  |  | IC50 (FLO-1 EAC cells; 72 h): 1.7 ± 1.48 µM; IC50 (SK-GT-4 EAC cells; 72 h): 2.28 ± 0.14 µM |
| O=C(Nc1ccc(S(F)(F)(F)(F)F)cc1)c1cc(Cl)ccc1O [Compound 2a, 5-Chloro-2-hydroxy-N-(4-pentafluorosulfanylphenyl)benzamide] | 1.9 ± 0.6 | 1.62 ± 0.55 | 1.8 ± 0.17 | 0.5 (≈ 0.187 µg/mL) | 0.5 (≈ 0.187 µg/mL) | 0.5 (≈ 0.187 µg/mL) | 0.5 (≈ 0.187 µg/mL) | 0.5 (≈ 0.187 µg/mL) | 0.5 (≈ 0.187 µg/mL) | 0.3 (≈ 0.112 µg/mL) | 0.5 (≈ 0.187 µg/mL) | 0.5 (≈ 0.187 µg/mL) | 445 | 13.33 | 113.3 |  | IC50 [1]: 0.3 ± 0.1 µM; half-life at 0.5 µM (Microsomal clearance): > 30 min; Microsomal Clearance (Microsomal clearance): 0.02 mL/min/mg Protein; IC50 at 72 h [2]: 2.3 to 3 µM; IC50 (HepG2 hepatoma cells): 2.26 ± 0.31 µM; solubility kinetic at 24 h (Kinetic solubility; kinetic from dmso stock): 0.67 µM (≈ 0.25 µg/mL); Toxicity to non-infected G. mellonella larvae [3]: not toxic; d10 Survival ([4]; infected larvae): 26.7% and 26.67%; chromatographic logD (CHI logD): 3.9 |
| O=C(Nc1ccc(SC(F)(F)F)cc1)c1cc(Cl)ccc1O [Compound 2b, 5-Chloro-2-hydroxy-N-(4-trifluoromethylsulfanylphenyl)benzamide] |  |  |  | 0.5 (≈ 0.174 µg/mL) | 0.5 (≈ 0.174 µg/mL) | 0.5 (≈ 0.174 µg/mL) | 0.5 (≈ 0.174 µg/mL) | 0.5 (≈ 0.174 µg/mL) | 0.3 (≈ 0.104 µg/mL) | 0.3 (≈ 0.104 µg/mL) | 0.5 (≈ 0.174 µg/mL) | 0.5 (≈ 0.174 µg/mL) | 451.7 | −3.33 | 120 |  | IC50 [1]: 0.2 ± 0.1 µM; IC90 [1]: 0.5 ± 0.6 µM; half-life at 0.5 µM (Microsomal clearance): 6.66 min; Microsomal Clearance (Microsomal clearance): 0.21 mL/min/mg Protein; IC50 at 72 h [2]: 2.3 to 3 µM; IC50 (HepG2 hepatoma cells): 2.99 ± 0.11 µM; IC50 (FLO-1 EAC cells; 72 h): 2.2 ± 0.36 µM; IC50 (SK-GT-4 EAC cells; 72 h): 2.02 ± 0.14 µM; Kinetic solubility (Kinetic solubility; 24 h): stability issues; Toxicity to non-infected G. mellonella larvae [3]: not toxic; Effect on survival between days three and six ([4]; infected larvae): considerable temporary effect; d10 Survival ([4]; infected larvae): no increased survival; melting point: 200 to 201 °C; chromatographic logD (CHI logD): 4.3 |
| O=C(Nc1cccc(S(F)(F)(F)(F)F)c1)c1cc(Cl)ccc1O [Compound 2c, 5-Chloro-2-hydroxy-N-(3-pentafluorosulfanylphenyl)benzamide] | 2 ± 0.1 | 1.38 ± 0.4 | 1.38 ± 0.45 | 2 (≈ 0.747 µg/mL) | 1 (≈ 0.374 µg/mL) | 1 (≈ 0.374 µg/mL) | 2 (≈ 0.747 µg/mL) | 2 (≈ 0.747 µg/mL) | 0.5 (≈ 0.187 µg/mL) | 1 (≈ 0.374 µg/mL) | 1 (≈ 0.374 µg/mL) | 1 (≈ 0.374 µg/mL) | 346.7 | −3.33 | 15 | 1.3 ± 0.7 | melting point: 197 °C |
| CCc1ccc(NC(=O)c2cc(Cl)ccc2O)cc1 [Compound 2d] | 8.4 ± 1.1 | 6.13 ± 0.96 | 7.1 ± 0.75 |  |  |  |  |  |  |  |  |  |  |  |  | 6.6 ± 2 |  |
| O=C(Nc1ccc(C(F)(F)F)cc1)c1cc(Cl)ccc1O [Compound 2e] | 1.1 ± 0.2 |  |  | 2 (≈ 0.631 µg/mL) | 1 (≈ 0.316 µg/mL) | 1 (≈ 0.316 µg/mL) | 2 (≈ 0.631 µg/mL) | 2 (≈ 0.631 µg/mL) | 1 (≈ 0.316 µg/mL) | 1 (≈ 0.316 µg/mL) | 1 (≈ 0.316 µg/mL) | 1 (≈ 0.316 µg/mL) | 453.3 | 3.33 | 121.6 | 0.9 ± 0.2 | MIC (M. mycetomatis strains; strain MM55, read-out: MIC, MM55): 1.0 µM (≈ 0.316 µg/mL) |
| O=C(Nc1cccc(C(F)(F)F)c1)c1cc(Cl)ccc1O [MMV665807] |  |  |  |  |  |  |  |  |  |  |  |  |  |  |  |  | IC50 [5]: 9.93 µM |
